In the oligonucleotide strings, read from the 5' end, every base follows the letter of its sugar. An asterisk marks phosphorothioate; unmarked linkages are phosphodiester. Other units and linkages are bracketed, terminal groups are in braces. A string of capitals states the bases alone. e = 2'-O-(2-methoxyethyl) (MOE); [5mC] = 5-methylcytosine; d = 2'-deoxy (DNA)
Key:
PEPCK-c = PEPCK-c mRNA expression in HepG2 cells; type: cell-based, human; details: for decrease in PEPCK-c mRNA: HepG2, basal (no insulin)
Description: (§1) Approximately 28 hours after transfection, the cells are subjected to serum starvation for a period of 12 to 16 hours, using serum-free growth medium. Following serum starvation, cells are treated with 1 nM insulin (insulin-treated) or are left untreated (basal conditions) for approximately four hours. At the same time, untreated control cells in both plates are treated with 100 nM insulin to determine the maximal insulin response. Following insulin treatment (forty-eight hours after transfection), total RNA is harvested from all samples, and the amount of total RNA from each sample is determined using a Ribogreen assay (Invitrogen Corporation, Carlsbad, Calif.). Real-time PCR is performed on the total RNA samples using primer/probe sets for three insulin responsive genes: insulin-like growth factor binding protein-1 (IGFBP-1), cytosolic PEPCK (PEPCK-C), and follistatin. Gene expression levels obtained by real-time PCR are normalized for total RNA content in the samples.
(§2) Oligomeric compounds of the present invention were tested for their effects on insulin signaling in HepG2 cells. HepG2 cells were plated at 7500 cells/well in collagen coated 96-well plates. The following day, cells were transfected with oligomeric compounds targeting miRNAs using 100 nM oligomeric compound in LIPOFECTIN™ (Invitrogen Corporation, Carlsbad, Calif.) in two 96-well plates. The oligomeric compounds were tested in triplicate on each 96-well plate, except for positive and negative controls, which were measured up to six times per plate. At the end of transfection, the transfection medium was replaced by regular growth medium. Twenty-eight hours post-transfection, the cells were subjected to overnight (sixteen to eighteen hours) serum starvation using serum free growth medium. Forty-four hours post-transfection, the cells in the transfected wells were treated with either no insulin (“basal” Experiment 1, for identification of insulin-mimetic compounds) or with 1 nM insulin (“insulin treated” Experiment 2, for identification of insulin sensitizers) for four hours. At the same time, in both plates, cells in some of the un-transfected control wells are treated with 100 nM insulin to determine maximal insulin response. At the end of the insulin or no-insulin treatment (forty-eight hours post-transfection), total RNA is isolated from both the basal and insulin treated (1 nM) 96-well plates, and the amount of total RNA from each sample is determined using a Ribogreen assay (Molecular Probes, Eugene, Oreg.). Real-time PCR is performed on all the total RNA samples using primer/probe sets for three insulin responsive genes: PEPCK-c, IGFBP-1 and follistatin. Expression levels for each gene are normalized to total RNA, and values+standard deviation are expressed relative to the transfectant only untreated control (UTC) and negative control compounds.
(§3) Protocols for treatment of HepG2 cells and transfection of oligomeric compounds are as described in Example 18. Also as described in Example 18, forty-four hours post-transfection, the cells in the transfected wells were treated with either no insulin (“basal” Experiment 3 (below), for identification of insulin-mimetic compounds) or with 1 nM insulin (“insulin treated” Experiment 4 (below), for identification of insulin sensitizers) for four hours. At the same time, in both plates, cells in some of the un-transfected control wells are treated with 100 nM insulin to determine maximal insulin response. At the end of the insulin or no-insulin treatment (forty-eight hours post-transfection), total RNA is isolated from both the basal and insulin treated (1 nM) 96-well plates, and the amount of total RNA from each sample is determined using a Ribogreen assay (Molecular Probes, Eugene, Oreg.).

IGFBP-1 = IGFBP-1 mRNA expression in HepG2 cells; type: cell-based, human; details: Experiment 2, insulin treated: HepG2 cells transfected with oligomeric compound, 1 nM insulin for four hours; UTC + 1 nM insulin = 100
Description: as §1, §2, §3

follistatin = assay: Follistatin mRNA expression in HepG2 cells; type: cell-based, human; details: Experiment 2, insulin treated: HepG2 cells transfected with oligomeric compound, 1 nM insulin for four hours; UTC + 1 nM insulin = 100
Description: as §1, §2, §3

[1] = tested on: BJ, B16-F10, T47D, T47Dp53 and HeLa cells; assay: Cell cycle assay (propidium iodide flow cytometry), cell line panel; type: cell-based; details: for G1 (percentage of cells in phase of the cell cycle) / G2/M (percentage of cells in phase of the cell cycle) / S (percentage of cells in phase of the cell cycle) / SubG1 (percentage of cells in phase of the cell cycle) / aneuploid (percentage of cells): 150 nM oligomeric compound, 4.5 μg/ml LIPOFECTIN, after 72 hours, propidium iodide flow cytometry
HeLa cells = assay: Cell cycle assay in HeLa cells; type: cell-based, human; details: HeLa cells, 150 nM oligomeric compound; for % cells aneuploid / % cells in cell cycle phase G1 / % cells in cell cycle phase G2/M / % cells in cell cycle phase S / % cells in cell cycle phase subG1: 24 hours, relative to untreated control (UTC = 100); for % cells in cell cycle phase: G1 / % cells in cell cycle phase: G2/M / % cells in cell cycle phase: S / % cells in cell cycle phase: aneuploid / % cells in cell cycle phase: subG1: 48 hours after treatment, relative to untreated control (UTC=100)
T47D cells = assay: Caspase-3 activity assay (apoptosis) in T47D cells; details: T47D cells, 48 hours; for Fold Increase over UTC (caspase-3 activity, apoptosis): 200 nM oligomeric compound, experiment of Table 12

Substance | G1 (percentage of cells in phase of the cell cycle) [1] [%] | G2/M (percentage of cells in phase of the cell cycle) [1] [%] | S (percentage of cells in phase of the cell cycle) [1] [%] | SubG1 (percentage of cells in phase of the cell cycle) [1] [%] | aneuploid (percentage of cells) [1] [%] | % cells aneuploid (HeLa cells) [%] | % cells in cell cycle phase G1 (HeLa cells) [%] | % cells in cell cycle phase G2/M (HeLa cells) [%] | % cells in cell cycle phase S (HeLa cells) [%] | % cells in cell cycle phase subG1 (HeLa cells) [%] | % cells in cell cycle phase: G1 (HeLa cells) [%] | % cells in cell cycle phase: G2/M (HeLa cells) [%] | % cells in cell cycle phase: S (HeLa cells) [%] | % cells in cell cycle phase: aneuploid (HeLa cells) [%] | % cells in cell cycle phase: subG1 (HeLa cells) [%] | Fold Increase over UTC (caspase-3 activity, apoptosis) (T47D cells) [fold] | other results
328764 (antisense eA*eG*eA*eT*eG*dT*dT*dT*d[5mC]*dT*dG*dG*d[5mC]*d[5mC]*dT*eG*e[5mC]*eG*eA*eG) [compound 328764] |  |  |  |  |  |  |  |  |  |  |  |  |  |  |  |  | PEPCKc mRNA expression (PEPCK-c; Experiment 2, insulin treated: HepG2 cells transfected with oligomeric compound, 1 nM insulin for four hours, UTC + 1 nM insulin = 100): 68; IGFBP1 mRNA expression (IGFBP-1): 145; Follistatin mRNA expression (follistatin): 128
328419 (antisense eT*eG*eT*eT*eG*d[5mC]*d[5mC]*dT*dA*dA*d[5mC]*dG*dA*dA*d[5mC]*eA*e[5mC]*eA*eG*eA) [compound 328419] | 51.2 | 16.3 | 32.5 | 6.0 | 17.9 | 77 | 109 | 124 | 79 | 87 | 99 | 107 | 96 | 112 | 83 | 0.7 | 
GCTACCTGCACTGTAAGCACTTTT (chemistry not given here) [ISIS 327911, uniform 2′-MOE PS; targets mir-106] |  |  |  |  |  |  |  |  |  |  |  |  |  |  |  |  | decrease in PEPCK-c mRNA (PEPCK-c; 100 nM): 48%; percentage of cells in the G2/M phase ([1]; 150 nM, 72 hours (Table 29)): increased percentage of cells in the G2/M phase
AGAAGGTGGGGAGCAGCGTCA (anti-miR; chemistry not fully specified) [ISIS 328115, uniform 2′-MOE PS; targets hypothetical miRNA-142] |  |  |  |  |  |  |  |  |  |  |  |  |  |  |  |  | reduction of PEPCK-c mRNA expression (PEPCK-c; HepG2, 1 nM insulin, 100 nM): 41%
328644 (eG*eA*e[5mC]*eA*eA*dG*dG*dT*dG*dG*dG*dA*dG*d[5mC]*dG*eA*eG*eT*eG*eG; antisense) [compound 328644] | 58.4 | 14 | 27.6 | 7.2 | 17.5 | 68 | 113 | 109 | 84 | 71 | 101 | 98 | 101 | 82 | 52 | 0.7 | 
ISIS 341805: SEQ ID NO: 762, targeting mir-184 (antisense ACCCTTATCAGTTCTCCGTCCA; all 2'-MOE, all phosphorothioate, methylation of C not given here) |  |  |  |  |  |  |  |  |  |  |  |  |  |  |  |  | decrease in PEPCK-c mRNA (PEPCK-c; 100 nM): 60%
328394 (eG*eT*eT*eT*eT*dT*dT*d[5mC]*dA*dA*dA*dT*d[5mC]*d[5mC]*d[5mC]*eA*eA*eA*e[5mC]*eT) [compound 328394] | 59.5 | 16 | 24.5 | 2.4 | 18.3 |  |  |  |  |  |  |  |  |  |  | 0.8 | 
328424 (antisense eA*eG*eG*eA*eA*dG*d[5mC]*dA*d[5mC]*dA*d[5mC]*dA*dT*dT*dA*eT*e[5mC]*eA*e[5mC]*eA) [compound 328424] | 61.9 | 14.4 | 23.7 | 3.1 | 16.9 | 74 | 110 | 112 | 85 | 60 | 103 | 101 | 91 | 111 | 89 |  | Fold Increase over UTC (caspase activity) (T47D cells; 200 nM, relative to untreated control): 0.9

Reference: patent publication US8178506B2, “Oligomeric compounds and compositions for use in modulation of small non-coding RNAs” (Regulus Therapeutics Inc., priority 2003, dated 2012)
